Measurements taken from patent publication US20160015703A1, “NANO- MIC[…] FOR […] OF AN ACTIVE INGREDIENT” (Danmarks Tekniske Universitet, priority 2013, published 2016).

Experiment: in vitro
Settings: human

Structure (SMILES): CN1CCCC1c1cccnc1 (stereo not shown) [HBSS with nicotine, nicotine]
- Papp: 8.5 ×10⁻⁶ cm/s
